Results reported in patent publication US8192962B2, “Processes for detecting toxic substances” (Daikin Industries, Ltd., priority 2001, dated 2012).

System: Genes belonging to other category
Assay: DNA chip mRNA expression in yeast, genes belonging to other category (Table 9)
Format: cell-based, Saccharomyces cerevisiae S288C
Experimental: Yeast (Saccharomyces cerevisiae S288C (α SUC2mal mel gap2 CUP1)) were incubated at 25° C. on YPD medium (yeast extract 1%, polypepton 2%, glucose 2%). One of toxic chemical substances was added to the cells at logarithmic growth phase, and the cells were further incubated for two hours. Cells were cultured without any chemical substance in the same condition, and were used as control. Concentrations of the chemical substances were defined to inhibit the growth of the yeast but not lead to death.
After completion of the incubation, the culture was centrifuged to collect the cells. To the cells, sodium acetate buffer (50 mM sodium acetate, 10 mM EDTA, 1% SDS) was added, and the mixture was shaken at 65° C. for five minutes, followed by returning to room temperature, and obtaining the supernatant, of which the procedures were repeated two times. To the supernatant, ½ amount of a solution of phenol/chloroform was added, and the mixture was centrifuged to give a supernatant, which was added with an equal amount of chloroform, and the mixture was centrifuged to give a supernatant. To the supernatant, an equal amount of isopropanol containing 0.3 M sodium acetate was added, and the mixture was allowed to stand at room temperature for 30 minutes, after which the mixture was centrifuged to give a sediment of the whole RNAs. Seventy % ethanol was added to the sediment, and the mixture was again centrifuged to give a sediment, which was then dried and dissolved in water. mRNA was isolated from the whole RNAs as followings. In view of the fact that a poly A chain is attached to the 3′ terminus of mRNA, a polynucleotide having a poly T structure which was immobilized on the surface of latex beads was used to trap the mRNA, and then the mRNA was washed and eluted with spine column (Oligotex-dT30<Super>mRNA Purification Kit, Takara). Reverse transcription of the mRNA was conducted with a reverse transcriptase (Super Script II Reverse Transcriptase; catalogue No. 18064-014, GibcoBRL) using fluorescence-labeled nucleotides to give cDNAs that were introduced with Cy3-dUTP or Cy5-dUTP during the reverse transcription.
The labeled cDNAs were dissolved in TE buffer (10mM Tris-HCl/1 mM EDTA, pH8.0), and the solution was dropped on the DNA chip containing the whole genes of yeast (DNA Chip Research Inc. Japan) so that the cDNAs were hybridized on the DNA chip at 65° C. for over 12 hours. The fluoresces intensity of the DNA chip was read with a scanner, and the ratio relative to the fluorescence intensity resulting from the absence of chemical substance was estimated as the following, which is shown in Tables 1 to 9: […]

`CN(C)C(=S)SSC(=S)N(C)C` [(10), Tetramethylthiuram disulfide] was tested, and the “The level of expressed mRNA in the presence of chemical substance/The level of expressed mRNA in the absence of chemical substance” value (yeast gene YDR505C) was 1.0, the “The level of expressed mRNA in the presence of chemical substance/The level of expressed mRNA in the absence of chemical substance” value (yeast gene YDR510W) was 2.5 and the “The level of expressed mRNA in the presence of chemical substance/The level of expressed mRNA in the absence of chemical substance” value (yeast gene YDR515W) was 2.7. The “The level of expressed mRNA in the presence of chemical substance/The level of expressed mRNA in the absence of chemical substance” value (yeast gene YEL012W) was 4.2, the “The level of expressed mRNA in the presence of chemical substance/The level of expressed mRNA in the absence of chemical substance” value (yeast gene YEL042W) was 0.3 and the “The level of expressed mRNA in the presence of chemical substance/The level of expressed mRNA in the absence of chemical substance” value (yeast gene YEL066W) was 2.4. For the same molecule, the “The level of expressed mRNA in the presence of chemical substance/The level of expressed mRNA in the absence of chemical substance” value (yeast gene YER009W) was 1.0, the “The level of expressed mRNA in the presence of chemical substance/The level of expressed mRNA in the absence of chemical substance” value (yeast gene YER012W) was 2.7 and the “The level of expressed mRNA in the presence of chemical substance/The level of expressed mRNA in the absence of chemical substance” value (yeast gene YER039C) was 0.8. For the same molecule, the “The level of expressed mRNA in the presence of chemical substance/The level of expressed mRNA in the absence of chemical substance” value (yeast gene YER076C) was 1.2, the “The level of expressed mRNA in the presence of chemical substance/The level of expressed mRNA in the absence of chemical substance” value (yeast gene YER107C) was 0.5 and the “The level of expressed mRNA in the presence of chemical substance/The level of expressed mRNA in the absence of chemical substance” value (yeast gene YER130C) was 1.3. The “The level of expressed mRNA in the presence of chemical substance/The level of expressed mRNA in the absence of chemical substance” value (yeast gene YFL022C) was 0.5, the “The level of expressed mRNA in the presence of chemical substance/The level of expressed mRNA in the absence of chemical substance” value (yeast gene YFL028C) was 1.8 and the “The level of expressed mRNA in the presence of chemical substance/The level of expressed mRNA in the absence of chemical substance” value (yeast gene YFL043C) was 3.8. The “The level of expressed mRNA in the presence of chemical substance/The level of expressed mRNA in the absence of chemical substance” value (yeast gene YFR004W) was 2.6, the “The level of expressed mRNA in the presence of chemical substance/The level of expressed mRNA in the absence of chemical substance” value (yeast gene YFR014C) was 1.6 and the “The level of expressed mRNA in the presence of chemical substance/The level of expressed mRNA in the absence of chemical substance” value (yeast gene YFR050C) was 2.1. The “The level of expressed mRNA in the presence of chemical substance/The level of expressed mRNA in the absence of chemical substance” value (yeast gene YGL158W) was 0.9, the “The level of expressed mRNA in the presence of chemical substance/The level of expressed mRNA in the absence of chemical substance” value (yeast gene YGL180W) was 3.7 and the “The level of expressed mRNA in the presence of chemical substance/The level of expressed mRNA in the absence of chemical substance” value (yeast gene YGL185C) was 2.3. For the same molecule, the “The level of expressed mRNA in the presence of chemical substance/The level of expressed mRNA in the absence of chemical substance” value (yeast gene YGL229C) was 1.7, the “The level of expressed mRNA in the presence of chemical substance/The level of expressed mRNA in the absence of chemical substance” value (yeast gene YGR120C) was 1.2 and the “The level of expressed mRNA in the presence of chemical substance/The level of expressed mRNA in the absence of chemical substance” value (yeast gene YGR136W) was 2.2. The “The level of expressed mRNA in the presence of chemical substance/The level of expressed mRNA in the absence of chemical substance” value (yeast gene YGR189C) was 0.9, the “The level of expressed mRNA in the presence of chemical substance/The level of expressed mRNA in the absence of chemical substance” value (yeast gene YGR213C) was 6.9 and the “The level of expressed mRNA in the presence of chemical substance/The level of expressed mRNA in the absence of chemical substance” value (yeast gene YGR248W) was 3.2. The “The level of expressed mRNA in the presence of chemical substance/The level of expressed mRNA in the absence of chemical substance” value (yeast gene YGR257C) was 1.9, the “The level of expressed mRNA in the presence of chemical substance/The level of expressed mRNA in the absence of chemical substance” value (yeast gene YHR004C) was 0.6 and the “The level of expressed mRNA in the presence of chemical substance/The level of expressed mRNA in the absence of chemical substance” value (yeast gene YHR071W) was 7.2. For the same molecule, the “The level of expressed mRNA in the presence of chemical substance/The level of expressed mRNA in the absence of chemical substance” value (yeast gene YHR109W) was 1.8, the “The level of expressed mRNA in the presence of chemical substance/The level of expressed mRNA in the absence of chemical substance” value (yeast gene YHR136C) was 2.0 and the “The level of expressed mRNA in the presence of chemical substance/The level of expressed mRNA in the absence of chemical substance” value (yeast gene YHR139C) was 46.6. For the same molecule, the “The level of expressed mRNA in the presence of chemical substance/The level of expressed mRNA in the absence of chemical substance” value (yeast gene YHR142W) was 0.9, the “The level of expressed mRNA in the presence of chemical substance/The level of expressed mRNA in the absence of chemical substance” value (yeast gene YHR161C) was 2.0 and the “The level of expressed mRNA in the presence of chemical substance/The level of expressed mRNA in the absence of chemical substance” value (yeast gene YIL034C) was 1.3. For the same molecule, the “The level of expressed mRNA in the presence of chemical substance/The level of expressed mRNA in the absence of chemical substance” value (yeast gene YIL123W) was 0.2, the “The level of expressed mRNA in the presence of chemical substance/The level of expressed mRNA in the absence of chemical substance” value (yeast gene YIL140W) was 0.6 and the “The level of expressed mRNA in the presence of chemical substance/The level of expressed mRNA in the absence of chemical substance” value (yeast gene YJL035C) was 1.4. For the same molecule, the “The level of expressed mRNA in the presence of chemical substance/The level of expressed mRNA in the absence of chemical substance” value (yeast gene YJL059W) was 1.6, the “The level of expressed mRNA in the presence of chemical substance/The level of expressed mRNA in the absence of chemical substance” value (yeast gene YJL073W) was 0.7 and the “The level of expressed mRNA in the presence of chemical substance/The level of expressed mRNA in the absence of chemical substance” value (yeast gene YJL089W) was 3.9. The “The level of expressed mRNA in the presence of chemical substance/The level of expressed mRNA in the absence of chemical substance” value (yeast gene YJL116C) was 2.6, the “The level of expressed mRNA in the presence of chemical substance/The level of expressed mRNA in the absence of chemical substance” value (yeast gene YJL141C) was 1.3 and the “The level of expressed mRNA in the presence of chemical substance/The level of expressed mRNA in the absence of chemical substance” value (yeast gene YJR004C) was 0.7. For the same molecule, the “The level of expressed mRNA in the presence of chemical substance/The level of expressed mRNA in the absence of chemical substance” value (yeast gene YJR049C) was 1.4.
